Test results taken from article PMC2888720 (Journal of medicinal chemistry, 2009).

Legend:
[1] = tested on: wild-type nontransfected HL-60 cells; experiment: Ca2+ mobilization in wild-type nontransfected HL-60 cells; details: control cells which do not express FPRs
human neutrophils [2] = experiment: Chemotaxis assay in human neutrophils; assay type: cell-based; details: Neutrophil, read-out: EC50 Chemotaxis
human neutrophils [3] = experiment: Ca2+ mobilization in human neutrophils; assay type: cell-based; details: Neutrophil, read-out: EC50 Ca2+ mobilization

Q: With COc1cccc(Cc2cc(C)nn(CC(=O)Nc3ccc(Br)cc3)c2=O)c1 [14a, N-(4-Bromophenyl)-2-[5-(3-methoxybenzyl)-3-methyl-6-oxo-6H-pyridazin-1-yl]-acetamide] as the molecule, how does the “Ca2+ flux response in wild-type (nontransfected, undifferentiated) HL-60 cells” value [1] read?
A: The value was “no response was observed”.

Q: For COc1cccc(Cc2cc(C)nn(CC(=O)Nc3ccc4c(c3)OCO4)c2=O)c1 [14m, N-Benzo[1,3]dioxol-5-yl-2-[5-(3-methoxybenzyl)-3-methyl-6-oxo-6H-pyridazin-1-yl]-acetamide], which EC50 (human neutrophils [2]) is on record?
A: The EC50 was 1.2 ± 0.6 µM.

Q: How did the EC50 (human neutrophils [3]) turn out when COc1cccc(Cc2cc(C)nn(CC(=O)Nc3ccc([N+](=O)[O-])cc3)c2=O)c1 [14p, 2-[5-(3-Methoxybenzyl)-3-methyl-6-oxo-6H-pyridazin-1-yl]-N-(4-nitrophenyl)-acetamide] was run?
A: Its EC50 is 21.7 ± 4.2 µM.

Q: And the EC50 (human neutrophils [2])?
A: Its EC50 is 1.9 ± 0.6 µM.
